Results as given in ChEMBL document CHEMBL1137529, “Syntheses and optimization of new GS39783 analogues as positive allosteric modulators of GABA B receptors” (Bioorg Med Chem Lett, 2007).

What was measured:
GABA-B receptor = GABA-B receptor (Homo sapiens, UniProt O75899+Q9UBS5); assay: Activity at GABAB 1b/2 receptor expressed in CHO-K1 cells assessed as effect on GABA-induced [35S]GTP-gamma-S binding
[1] = Solubility in water; format: physicochemical
[2] = Partition coefficient, log P of the compound; format: physicochemical; settings: octanol/water

Sequence of GABA-B receptor (Q9UBS5 whole entry): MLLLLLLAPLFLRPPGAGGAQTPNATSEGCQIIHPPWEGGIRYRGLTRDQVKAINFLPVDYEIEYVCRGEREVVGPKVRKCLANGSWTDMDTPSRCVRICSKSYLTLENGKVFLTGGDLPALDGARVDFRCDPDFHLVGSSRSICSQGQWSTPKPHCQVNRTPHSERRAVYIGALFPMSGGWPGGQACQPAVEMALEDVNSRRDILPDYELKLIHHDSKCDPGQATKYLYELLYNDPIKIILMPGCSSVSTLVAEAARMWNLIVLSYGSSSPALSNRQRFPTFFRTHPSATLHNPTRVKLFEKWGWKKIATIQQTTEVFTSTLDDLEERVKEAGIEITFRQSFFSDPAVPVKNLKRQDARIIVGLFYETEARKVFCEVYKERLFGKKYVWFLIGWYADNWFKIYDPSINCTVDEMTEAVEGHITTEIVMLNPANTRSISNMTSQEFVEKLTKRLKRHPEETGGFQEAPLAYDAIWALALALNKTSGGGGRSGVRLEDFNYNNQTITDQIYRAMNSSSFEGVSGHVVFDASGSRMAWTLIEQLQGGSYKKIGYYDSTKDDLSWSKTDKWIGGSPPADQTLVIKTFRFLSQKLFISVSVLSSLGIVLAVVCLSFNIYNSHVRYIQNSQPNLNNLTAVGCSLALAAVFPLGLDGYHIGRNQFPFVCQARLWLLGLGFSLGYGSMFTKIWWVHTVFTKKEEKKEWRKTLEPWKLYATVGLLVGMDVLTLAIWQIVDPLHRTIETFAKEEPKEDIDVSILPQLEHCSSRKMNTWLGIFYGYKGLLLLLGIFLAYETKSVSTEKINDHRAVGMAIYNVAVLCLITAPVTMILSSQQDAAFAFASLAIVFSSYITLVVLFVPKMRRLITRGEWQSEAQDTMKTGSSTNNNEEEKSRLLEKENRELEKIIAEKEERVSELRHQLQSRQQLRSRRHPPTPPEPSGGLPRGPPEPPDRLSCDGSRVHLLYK
Sequence of GABA-B receptor (O75899 whole entry): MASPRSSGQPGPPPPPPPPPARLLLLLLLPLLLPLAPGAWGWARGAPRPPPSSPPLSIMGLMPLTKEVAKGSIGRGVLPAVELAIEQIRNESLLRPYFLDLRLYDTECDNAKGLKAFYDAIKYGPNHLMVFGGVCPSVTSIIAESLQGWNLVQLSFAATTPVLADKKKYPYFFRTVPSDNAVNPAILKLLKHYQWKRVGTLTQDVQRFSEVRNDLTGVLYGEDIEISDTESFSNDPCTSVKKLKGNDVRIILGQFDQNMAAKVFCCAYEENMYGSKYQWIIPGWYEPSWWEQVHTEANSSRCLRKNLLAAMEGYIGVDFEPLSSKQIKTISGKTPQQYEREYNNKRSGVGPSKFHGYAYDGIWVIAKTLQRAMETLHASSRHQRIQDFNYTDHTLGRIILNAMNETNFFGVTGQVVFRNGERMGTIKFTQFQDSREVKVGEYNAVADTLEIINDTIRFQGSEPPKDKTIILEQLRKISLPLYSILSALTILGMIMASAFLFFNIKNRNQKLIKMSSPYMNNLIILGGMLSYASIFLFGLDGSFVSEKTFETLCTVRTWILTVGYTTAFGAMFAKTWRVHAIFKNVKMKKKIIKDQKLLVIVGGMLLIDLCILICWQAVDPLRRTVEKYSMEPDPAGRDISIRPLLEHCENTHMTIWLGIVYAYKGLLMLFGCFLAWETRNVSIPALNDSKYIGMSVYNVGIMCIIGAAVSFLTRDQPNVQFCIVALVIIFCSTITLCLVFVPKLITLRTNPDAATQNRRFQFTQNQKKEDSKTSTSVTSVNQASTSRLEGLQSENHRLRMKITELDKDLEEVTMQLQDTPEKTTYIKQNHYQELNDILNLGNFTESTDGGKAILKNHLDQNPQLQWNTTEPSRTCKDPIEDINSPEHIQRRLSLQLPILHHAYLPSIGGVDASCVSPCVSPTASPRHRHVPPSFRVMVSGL

Row | EC50 (GABA-B receptor) | solubility [1] | logP [2] | Structure (SMILES)
1 | – | < 10 µg/mL | > 5.9 | Cc1ncc(-c2ccc(C(F)(F)F)cc2)c(NC2C3CC4CC(C3)CC2C4)n1 (configuration not stated)
2 | – | < 10 µg/mL | > 5.9 | Cc1ncc(-c2ccc(C(F)(F)F)cc2)c(NC23CC4CC(CC(C4)C2)C3)n1
3 | 1660 nM | – | – | Cc1ncc(-c2ccc(C(F)(F)F)cc2)c(NC2CCCCCC2)n1

More lines, now with the values behind:

Row | Structure (SMILES) | EC50 (GABA-B receptor) | solubility [1] | logP [2]
4 | COc1ncc(-c2ccc(C(F)(F)F)cc2)c(N[C@@H]2C[C@@H]3CC[C@H]2C3)n1 | 2040 nM | – | –
5 | Cc1ncc(-c2ccc(OC(F)(F)F)cc2)c(NC2CCCC2)n1 | 4570 nM | – | –
